Data published in patent publication US10858335B2 (Rigel Pharmaceuticals, Inc., priority 2014, dated 2020).

The compounds below were run on GDF8 signaling (p-SMAD-3 (Ser423/425)) (assay: AlphaScreen SureFire SMAD3 (p-Ser423/425) assay, GDF8-stimulated cells (GDF pSMAD)). Settings: MPC11; GDF8-stimulated; p-SMAD3 AlphaScreen; read-out: GDF pSMAD (MPC11) (inhibition of GDF8 signaling).
Type: cell-based
Description: Biological Example 1: AlphaScreen® SureFire® SMAD3 (p-Ser423/425) Assay
The p-SMAD-3 (Ser423/425) SureFire® assay has been designed to measure the phosphorylation of endogenous cellular p-SMAD-3 (Ser423/425) in cell lysates and is a system for the screening of both modulators of receptor activation (e.g. agonists and antagonists) as well as agents acting intracellularly, such as small molecule inhibitors of upstream events. The assay will measure p-SMAD-3 (Ser423/425) activation by either cloned or endogenous receptors, and can be applied to primary cells.
P-SMAD-3 (Ser423/425) SureFire® Assay Protocols
Step A: Preparation of Buffers
1× Lysis buffer: 1 ml of 5× Lysis buffer was diluted with 4 ml of sterile water. After dilution, excess 1× Lysis buffer can be frozen and thawed up to 5 times without loss in activity.
Activation buffer: The buffer was warmed slowly to 37° C. and gently mixed to re-suspend. Activation buffer can be stored at room temperature with no loss in activity.
Reaction buffer: The buffer was kept at 4° C. while in use.
AlphaScreen® Protein A IgG Kit: The kit was stored at 4° C. in the dark.
Reaction buffer+Activation buffer+AlphaScreen® Acceptor beads: Reaction buffer (40 parts), Activation Buffer (10 parts) and Acceptor beads (1 part) were mixed and the mixture was stored at room temperature and used the same day. Mixture was added to 384-well plates; excess mixture was discarded.
Dilution buffer+AlphaScreen® Donor beads: Dilution buffer (20 parts) and Donor beads (1 part) were mixed and the mixture was stored at room temperature and used the same day. Excess mixture was discarded.
Assay control samples: After reconstitution in 250 μl of water, lysates were at −20° C. in single use aliquots.
Step B: Preparation of Samples and Cells
96-well Assay Protocol for 293FT and RMS13 adherent cells can be carried out manually or in high throughput with liquid handling robots.
The cells (80 μL of cells for 96 well plates) were plated in collagen coated tissue culture plates in RPMI or FreeStyle medium (Invitrogen) and incubated overnight. For manual analysis, 6 plates for GDF8, 6 plates for TGFβ, and optionally 6 plates for AlkSca(ALK5 constitutively active) were used.
The compound dilution plates were prepared as follows: 12 μL of DMSO was transferred into first column of 96-well plate, and 16 μL of DMSO was transferred into columns 2-12 of the 96-well plate. 12 μL of compound solution was transferred into first column of the DMSO-containing 96-well plate. Three-fold dilution was performed up to column 10 of the DMSO-containing 96-well plate.
Step C: Treatment and Analysis
The plate containing cells were treated with compounds for about 10 minutes, and then ligand was added. GDF8 or TGFb was added to plates to stimulate. 293FL cells were stimulated for 90 minutes at 37° C.; and RMS13 cells were stimulated for 60 minutes at 37° C. The medium was then removed from the cells, and 1× Lysis Buffer (about 25 μL) was added and the plate was gently agitated on plate shaker for 5-10 minutes.
The lysate (5 μL) was then placed into 384-well shallow plates avoiding the generation of bubbles. To this, the Reaction Buffer+Activation Buffer+AlphaScreen® Acceptor beads mixture (5 μL) was added. The plate was sealed with adhesive cover and shielded from light (e.g., with metal foil), and agitated gently on plate shaker for 2 hours at room temperature.
Dilution buffer+AlphaScreen® Donor beads (2 μL) was then added, and the plate was intubated on the plate shaker for an additional 1½ hours. After completion, the plate was read on Synergy-4 or Enspire plate reader, using AlphaScreen® pSMAD3® settings.
Representative results for inhibition of GDF8 signaling are shown in Table 2(data=GDF pSMAD (MPC11) (μM)): […]

`Cc1cc(-c2ncccc2-c2ccn3ncc(C(=O)NC4CC5CCC(C4)N5C)c3c2)ccc1F` (stereo not drawn) [compound 715, exo-5-(2-(4-Fluoro-3-methylphenyl)pyridin-3-yl)-N-(8-methyl-8-azabicyclo[3.2.1]octan-3-yl)pyrazolo[1,5-a]pyridine-3-carboxamide] showed an IC50 of 2.03 µM.

Same assay, conditions: Mus musculus, MPC-11, GDF8-stimulated pSMAD3, MPC11; tested as the salt form given; read-out: GDF pSMAD (MPC11) (μM), inhibition of GDF8 signaling

In order of rising IC50:
1. Nc1ncnc2ccc(-c3cccnc3-c3cc(OC(F)(F)F)ccc3F)cc12 [compound 1014, 6-(2-(2-fluoro-5-(trifluoromethoxy)phenyl)pyridin-3-yl)quinazolin-4-amine]  0.416 µM
2. Cc1cc(C)c(-c2ncccc2-c2ccc3ncnc(N)c3c2)cc1F [compound 988, 6-(2-(5-fluoro-2,4-dimethylphenyl)pyridin-3-yl)quinazolin-4-amine]  1.06 µM
3. Nc1ncnc2ccc(-c3cccnc3-c3cc(OC(F)(F)F)ccc3Cl)cc12 [compound 1009, 6-(2-(2-chloro-5-(trifluoromethoxy)phenyl)pyridin-3-yl)quinazolin-4-amine]  3.29 µM

Same assay, conditions: Mus musculus, MPC-11, MPC11; GDF8-stimulated; p-SMAD3 AlphaScreen; read-out: GDF pSMAD (MPC11) (inhibition of GDF8 signaling)

In order of falling IC50:
1. CCOc1cnc(-c2ccc(F)cc2)c(-c2ccc3[nH]ncc3c2)c1 [Compound 6, 5-(5-Ethoxy-2-(4-fluorophenyl)pyridin-3-yl)-1H-indazole]  18.7 µM
2. CCOCCCn1cnc2ccc(-c3cccnc3-c3cccc(C)c3)cc21 [Compound 39, 1-(3-Ethoxypropyl)-6-(2-m-tolylpyridin-3-yl)-1H-benzo[d]imidazole]  14.3 µM
3. Cc1cc(-c2ncccc2-c2ccc3ncnc(NCc4ccncc4)c3c2)ccc1F [compound 415, 6-(2-(4-Fluoro-3-methylphenyl)pyridin-3-yl)-N-(pyridin-4-ylmethyl)quinazolin-4-amine]  11.8 µM
4. Cc1cc(-c2ncccc2-c2ccc3c(cnn3C(=O)NCCN(C)C)c2)ccc1F [compound 633, N-(2-(Dimethylamino)ethyl)-5-(2-(4-fluoro-3-methylphenyl)pyridin-3-yl)-1H-indazole-1-carboxamide]  11.3 µM
5. CCOCCCn1cnc2ccc(-c3cccnc3-c3ccc(F)c(C)c3)cc21 [Compound 42, 1-(3-Ethoxypropyl)-6-(2-(4-fluoro-3-methylphenyl)pyridin-3-yl)-1H-benzo[d]imidazole]  10.5 µM
6. Cc1cc(-c2ncccc2-c2ccc3ncc(N(C)C)n3c2)ccc1F [compound 551, 6-(2-(4-Fluoro-3-methylphenyl)pyridin-3-yl)-N,N-dimethylimidazo[1,2-a]pyridin-3-amine]  4.88 µM
7. Cc1cc(Cl)cc(-c2ncccc2-c2ccc3ncnn3c2)c1 [compound 775, 6-(2-(3-Chloro-5-methylphenyl)pyridin-3-yl)-[1,2,4]triazolo[1,5-a]pyridine]  3.96 µM
8. COc1cnc(-c2cccc(C(F)(F)F)c2)c(-c2ccn3ncnc3c2)c1 [compound 859]  3.7 µM
9. Nc1cccc(-c2ncccc2-c2ccc3[nH]ncc3c2)c1 [Compound 75, 5-(2-(3-Aminophenyl)pyridin-3-yl)-1H-indazole]  3.47 µM
10. Fc1ccc(-c2ncccc2-c2ccc3ncsc3c2)cc1 [compound 659, 6-(2-(4-Fluorophenyl)pyridin-3-yl)benzo[d]thiazole]  2.01 µM
11. CCn1cnc2ccc(-c3cccnc3-c3ccc(F)c(C)c3)cc21 [Compound 46, 1-Ethyl-6-(2-(4-fluoro-3-methylphenyl)pyridin-3-yl)-1H-benzo[d]imidazole]  1.73 µM
12. Cn1c(=O)cnc2ccc(-c3cccnc3-c3cc(Cl)ccc3F)cc21 [compound 889, 7-(2-(5-Chloro-2-fluorophenyl)pyridin-3-yl)-1-methylquinoxalin-2(1H)-one]  1.52 µM
13. Cc1cc(-c2ncccc2-c2ccc3ncc(C(=O)Nc4ccc(C(N)=O)cc4)n3c2)ccc1F [compound 618, N-(4-Carbamoylphenyl)-6-(2-(4-fluoro-3-methylphenyl)pyridin-3-yl)imidazo[1,2-a]pyridine-3-carboxamide]  1.12 µM
14. CC(=O)Nc1cnc(-c2ccc(F)c(C)c2)c(-c2ccc3[nH]ncc3c2)c1 [Compound 24, N-(6-(4-Fluoro-3-methylphenyl)-5-(1H-indazol-5-yl)pyridin-3-yl)acetamide]  0.671 µM
15. Cc1cc(-c2ncccc2-c2ccc3ncc(C(=O)NCCN4CCOC4=O)n3c2)ccc1F [compound 817, 6-(2-(4-Fluoro-3-methylphenyl)pyridin-3-yl)-N-(2-(2-oxooxazolidin-3-yl)ethyl)imidazo[1,2-a]pyridine-3-carboxamide]  0.584 µM
16. FC(F)(F)c1cccc(-c2ncccc2-c2ccc3ncccc3n2)c1 [compound 538, 2-(2-(3-(Trifluoromethyl)phenyl)pyridin-3-yl)-1,5-naphthyridine]  0.474 µM
17. Cc1cccc(-c2ncccc2-c2ccc3ncnn3c2)c1 [Compound 192, 6-(2-m-Tolylpyridin-3-yl)-[1,2,4]triazolo[1,5-a]pyridine]  0.347 µM
18. Nc1nc2ccc(-c3cccnc3-c3cccc(Cl)c3)nc2s1 [compound 301, 5-(2-(3-Chlorophenyl)pyridin-3-yl)thiazolo[5,4-b]pyridin-2-amine]  0.345 µM
19. Cc1cc(-c2ncccc2-c2ccn3ncc(C(=O)NCCCN4CCOCC4)c3c2)ccc1F [compound 672, 5-(2-(4-Fluoro-3-methylphenyl)pyridin-3-yl)-N-(3-morpholinopropyl)pyrazolo[1,5-a]pyridine-3-carboxamide]  0.273 µM
20. Cc1cc(-c2ncccc2-c2ccn3ncc(C(=O)NCCCN4CCN(C)CC4)c3c2)ccc1F [compound 676, 5-(2-(4-Fluoro-3-methylphenyl)pyridin-3-yl)-N-(3-(4-methylpiperazin-1-yl)propyl)pyrazolo[1,5-a]pyridine-3-carboxamide]  0.267 µM
21. Fc1cc(F)c(-c2ncccc2-c2ccc3nccn3n2)cc1Cl [compound 938, 6-(2-(5-Chloro-2,4-difluorophenyl)pyridin-3-yl)imidazo[1,2-b]pyridazine]  0.242 µM
22. [2H]C([2H])([2H])c1cccc(-c2ncccc2-c2ccc3nccn3c2)c1 [compound 600, 6-(2-(3-(Methyl-d3)phenyl)pyridin-3-yl)imidazo[1,2-a]pyridine]  0.179 µM
23. Cn1cnc2ccc(-c3cccnc3-c3cccc(OC(F)F)c3)cc21 [compound 963, 6-(2-(3-(Difluoromethoxy)phenyl)pyridin-3-yl)-1-methyl-1H-benzo[d]imidazole]  0.175 µM
24. Cc1cc(-c2ncccc2-c2ccc3ncc(C(F)(F)F)n3c2)ccc1F [compound 555, 6-(2-(4-Fluoro-3-methylphenyl)pyridin-3-yl)-3-(trifluoromethyl)imidazo[1,2-a]pyridine]  0.156 µM
25. Cn1cnc2ccc(-c3cccnc3-c3cccc(Cl)c3)cc21 [compound 769, 6-(2-(3-Chlorophenyl)pyridin-3-yl)-1-methyl-1H-benzo[d]imidazole]  0.153 µM
26. Fc1ccc(-c2ncccc2-c2ccn3nccc3n2)cc1C1CC1 [compound 896, 5-(2-(3-Cyclopropyl-4-fluorophenyl)pyridin-3-yl)pyrazolo[1,5-a]pyrimidine]  0.0936 µM
27. FC(F)Oc1cccc(-c2ncccc2-c2ccn3nccc3n2)c1 [compound 921, 5-(2-(3-(Difluoromethoxy)phenyl)pyridin-3-yl)pyrazolo[1,5-a]pyrimidine]  0.0706 µM
28. Fc1ccc(-c2ncccc2-c2ccc3ncc(-c4ncn[nH]4)n3c2)cc1Cl [compound 844, 6-(2-(3-Chloro-4-fluorophenyl)pyridin-3-yl)-3-(1H-1,2,4-triazol-5-yl)imidazo[1,2-a]pyridine]  0.0324 µM
